We go through 14 compounds from patent US12662489B2 (Sitryx Therapeutics Limited, priority 2023, dated 2026).

In experiment [1] the target is T1, MTHFD1 recombinant human enzyme (Homo sapiens, UniProt P11586).
T1 sequence (P11586 2-291 limits assumed): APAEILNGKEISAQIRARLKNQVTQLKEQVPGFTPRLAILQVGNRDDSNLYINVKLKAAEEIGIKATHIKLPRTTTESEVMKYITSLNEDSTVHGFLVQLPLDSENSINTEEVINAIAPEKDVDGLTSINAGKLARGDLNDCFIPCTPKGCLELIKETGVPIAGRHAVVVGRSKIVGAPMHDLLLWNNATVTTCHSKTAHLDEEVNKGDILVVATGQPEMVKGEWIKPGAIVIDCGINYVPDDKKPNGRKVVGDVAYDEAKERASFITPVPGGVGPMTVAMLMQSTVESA
Briefly: MTHFD1 inhibition assay (NAD(P)H-Glo luminescence). Particulars: MTHFD1 IC50, recombinant human enzyme 200 nM, NADP, band.

For experiment [2], the target named is T2, MTHFD2 recombinant human enzyme (Homo sapiens, UniProt P13995).
T2 sequence (P13995 36-350): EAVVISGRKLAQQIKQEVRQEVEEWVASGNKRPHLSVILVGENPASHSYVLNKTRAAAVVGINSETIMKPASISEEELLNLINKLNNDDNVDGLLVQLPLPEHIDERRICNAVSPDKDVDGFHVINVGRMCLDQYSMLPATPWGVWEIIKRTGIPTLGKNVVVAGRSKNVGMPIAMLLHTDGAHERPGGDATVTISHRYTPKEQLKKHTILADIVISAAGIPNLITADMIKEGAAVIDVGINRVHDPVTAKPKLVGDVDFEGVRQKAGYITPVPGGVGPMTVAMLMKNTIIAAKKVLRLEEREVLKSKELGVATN
Briefly: MTHFD2 inhibition assay (NAD(P)H-Glo luminescence). As to conditions: for MTHFD1/MTHFD2 IC50 ratio: selectivity of MTHFD2 inhibition over MTHFD1, band.

The subject of the next experiment is human CD4+ T cells. Briefly: Human CD4+ T-cell proliferation assay (CFSE, CD3/28 beads). As to conditions: read-out: Proliferation IC50.

The structures appear in SMILES notation.

Protocol for human CD4+ T cells: Cells were incubated at room temperature for 8 minutes in a rotator in the dark. 13 mL cRPMI was added to each tube and cells were centrifuged at 500×g for 4 minutes at room temperature before pellets were resuspended in 10 mL cRPMI. Cells were counted using the Auto2000 Cellometer and AO/PI viability stain and concentration adjusted to 0.6×10^6 cells/mL in cRPMI. […] Control wells were included for flow cytometry and edge wells were filled with 200 μL 1×dPBS. Cells were incubated at 37° C., 5% CO2 for 2 days before compound treatment. […] Cells were incubated at 37° C., 5% CO2 for a further 2 days prior to flow staining and supernatant harvest.
On the final day plates were centrifuged at 500×g for 4 minutes at room temperature. 125 μL of supernatants were transferred to a V bottom 96 well polystyrene plate and stored at −80° C. Plates were gently vortexed to disrupt the cell pellets before 125 μL 1×PBS was added to each well. Plates were centrifuged at 500×g for 4 minutes at room temperature and supernatants removed from the plates by aspirating. Plates were gently vortexed and 30 μL of live/dead stain (Invitrogen, L34975) in 1×dPBS was added and incubated for 15 minutes in the dark at 4° C. […] 100 μL of flow cytometry buffer was added and plates were centrifuged at 500×g for 4 minutes before supernatants were aspirated from the plates. Wells were resuspended in 200 μL flow cytometry buffer and plates stored at 4° C. before being run on the flow cytometer.
Data was analysed using FlowJo and the compensation matrix applied to all samples. The gates were set using unstained and unstimulated samples.

Regarding `COC[C@H]1CN(c2cc(C)c3c4c(c(=O)oc3c2C)CN(C(=O)c2ccc(C(=O)NS(=O)(=O)N3CCCC3)c(OC)c2F)CC4)CCN1C` [Example 135, (R)-3-fluoro-2-methoxy-4-(8-(3-(methoxymethyl)-4-methylpiperazin-1-yl)-7,10-dimethyl-5-oxo-1,3,4,5-tetrahydro-2H-chromeno[3,4-c]pyridine-3-carbonyl)-N-(pyrrolidin-1-ylsulfonyl)benzamide], the figures for the IC50 (in experiment [1]; in experiment [2]; with human CD4+ T cells) were 10 to 100 nM, 1 to 10 nM and 10 to 30 nM, respectively. The “MTHFD1/MTHFD2 IC50 ratio” value in experiment [2] is listed as “G (^ 3 to 9.0)”.

As to `COC[C@H]1CN(c2ccc3c4c(c(=O)oc3c2C)CN(C(=O)c2cc(F)c(C(=O)NS(=O)(=O)C3(C)CC3)c(N3C5CCC3CC5)c2)CC4)CCN1C` [Example 22, (R)-2-(7-azabicyclo[2.2.1]heptan-7-yl)-6-fluoro-4-(8-(3-(methoxymethyl)-4-methylpiperazin-1-yl)-7-methyl-5-oxo-1,3,4,5-tetrahydro-2H-chromeno[3,4-c]pyridine-3-carbonyl)-N-((1-methylcyclopropyl)sulfonyl)benzamide], the IC50 in experiment [1] fell in the range of 1 to 10 nM; in experiment [2], 1 to 10 nM; in the experiment on human CD4+ T cells, 10 to 30 nM. Also, the “MTHFD1/MTHFD2 IC50 ratio” value in experiment [2] is on record as “F (<3)”.

Take `CNc1cc(C(=O)N2CCc3c(c(=O)oc4c(C)c(N5CCN(C)[C@@H](COC)C5)cc(C)c34)C2)c(F)cc1C(=O)NS(=O)(=O)N1CCCC1` [Example 201, (R)-5-fluoro-4-(8-(3-(methoxymethyl)-4-methylpiperazin-1-yl)-7,10-dimethyl-5-oxo-1,3,4,5-tetrahydro-2H-chromeno[3,4-c]pyridine-3-carbonyl)-2-(methylamino)-N-(pyrrolidin-1-ylsulfonyl)benzamide]: the IC50 is 1000 to 5000 nM in experiment [1], 10 to 100 nM in experiment [2] and 100 to 1000 nM with human CD4+ T cells. Also, the “MTHFD1/MTHFD2 IC50 ratio” value in experiment [2] is given as “J (>30)”.

With `COC[C@H]1CN(c2cc(C)c3c4c(c(=O)oc3c2C)CN(C(=O)c2cc(N(C)C)c(C(=O)NS(=O)(=O)N3CC[C@H](F)C3)cc2F)CC4)CCN1C` [Example 254, 2-(dimethylamino)-5-fluoro-N-(((S)-3-fluoropyrrolidin-1-yl)sulfonyl)-4-(8-((R)-3-(methoxymethyl)-4-methylpiperazin-1-yl)-7,10-dimethyl-5-oxo-1,3,4,5-tetrahydro-2H-chromeno[3,4-c]pyridine-3-carbonyl)benzamide], the results for the IC50 (in experiment [1]; in experiment [2]; in the experiment on human CD4+ T cells) were 100 to 1000 nM, 1 to 10 nM and 10 to 30 nM, respectively. The “MTHFD1/MTHFD2 IC50 ratio” value in experiment [2] is reported as “J (>30)”.

In the case of `COC[C@H]1CN(c2cc(Cl)c3c4c(c(=O)oc3c2C)CN(C(=O)c2ccc(C(=O)NS(=O)(=O)N3C5CCC3CC5)c(OC)c2)CC4)CCN1C` [Example 321, (R)-N-((7-azabicyclo[2.2.1]heptan-7-yl)sulfonyl)-4-(10-chloro-8-(3-(methoxymethyl)-4-methylpiperazin-1-yl)-7-methyl-5-oxo-1,3,4,5-tetrahydro-2H-chromeno[3,4-c]pyridine-3-carbonyl)-2-methoxybenzamide], the IC50 was in the range of 1000 to 5000 nM in experiment [1], 10 to 100 nM in experiment [2] and 30 to 100 nM with human CD4+ T cells. In addition, the “MTHFD1/MTHFD2 IC50 ratio” value in experiment [2] is “J (>30)”.

In the case of `COC[C@H]1CN(c2ccc3c4c(c(=O)oc3c2C)CN(C(=O)c2ccc(C(=O)NS(=O)(=O)N(C)C)c(OC3CCC3)c2F)CC4)CCN1C` [Example 50, (R)-2-cyclobutoxy-N-(N,N-dimethylsulfamoyl)-3-fluoro-4-(8-(3-(methoxymethyl)-4-methylpiperazin-1-yl)-7-methyl-5-oxo-1,3,4,5-tetrahydro-2H-chromeno[3,4-c]pyridine-3-carbonyl)benzamide], the IC50 (in experiment [1]; in experiment [2]; in the experiment on human CD4+ T cells) was 1 to 10 nM throughout. The “MTHFD1/MTHFD2 IC50 ratio” value in experiment [2] is reported as “F (<3)”.

As to `COC[C@H]1CN(c2cc(C)c3c4c(c(=O)oc3c2C)CN(C(=O)c2cc(N(C)C)c(C(=O)NS(=O)(=O)N3C5CCC3COC5)cc2F)CC4)CCN1C` [Example 256, N-((3-oxa-8-azabicyclo[3.2.1]octan-8-yl)sulfonyl)-2-(dimethylamino)-5-fluoro-4-(8-((R)-3-(methoxymethyl)-4-methylpiperazin-1-yl)-7,10-dimethyl-5-oxo-1,3,4,5-tetrahydro-2H-chromeno[3,4-c]pyridine-3-carbonyl)benzamide], the IC50 in experiment [1] was 1000 to 5000 nM; in experiment [2] it was 1 to 10 nM; with human CD4+ T cells, 10 to 30 nM. Moreover, in experiment [2], the “MTHFD1/MTHFD2 IC50 ratio” value is listed as “J (>30)”.

As for `CCOc1cc(C(=O)N2CCc3c(c(=O)oc4c(C)c(N5CCN(C)[C@@H](COC)C5)cc(CC)c34)C2)c(F)cc1C(=O)NS(=O)(=O)N1CCCC1` [Example 244, (R)-2-ethoxy-4-(10-ethyl-8-(3-(methoxymethyl)-4-methylpiperazin-1-yl)-7-methyl-5-oxo-1,3,4,5-tetrahydro-2H-chromeno[3,4-c]pyridine-3-carbonyl)-5-fluoro-N-(pyrrolidin-1-ylsulfonyl)benzamide], the figures for the IC50 (in experiment [1]; in experiment [2]; in the experiment with human CD4+ T cells) were 100 to 1000 nM, 10 to 100 nM and 100 to 1000 nM, respectively. Further, the “MTHFD1/MTHFD2 IC50 ratio” value in experiment [2] is “J (>30)”.

`COC[C@H]1CN(c2cc(C)c3c4c(c(=O)oc3c2C)CN(C(=O)c2ccc(C(=O)NS(=O)(=O)N3CCCC3)c(OC(F)(F)F)c2F)CC4)CCN1C` [Example 169, (R)-3-fluoro-4-(8-(3-(methoxymethyl)-4-methylpiperazin-1-yl)-7,10-dimethyl-5-oxo-1,3,4,5-tetrahydro-2H-chromeno[3,4-c]pyridine-3-carbonyl)-N-(pyrrolidin-1-ylsulfonyl)-2-(trifluoromethoxy)benzamide]: the IC50 was in the range of 100 to 1000 nM in experiment [1], 10 to 100 nM in experiment [2] and 100 to 1000 nM in the experiment with human CD4+ T cells. In experiment [2], the “MTHFD1/MTHFD2 IC50 ratio” value was “H (>9.0 to 30)”.

Turning to `COC[C@H]1CN(c2cc(C)c3c4c(c(=O)oc3c2C)CN(C(=O)c2ccc(C(=O)NS(=O)(=O)N3CCC5(CC3)CC5)c(OC)c2F)CC4)CCN1C` [Example 155, (R)-N-((6-azaspiro[2.5]octan-6-yl)sulfonyl)-3-fluoro-2-methoxy-4-(8-(3-(methoxymethyl)-4-methylpiperazin-1-yl)-7,10-dimethyl-5-oxo-1,3,4,5-tetrahydro-2H-chromeno[3,4-c]pyridine-3-carbonyl)benzamide], the IC50 in experiment [1] was in the range of 100 to 1000 nM; in experiment [2], 10 to 100 nM; in the experiment with human CD4+ T cells, 10 to 30 nM.

In the case of `COC[C@H]1CN(c2cc(C)c3c4c(c(=O)oc3c2C)CN(C(=O)c2ccc(C(=O)NS(=O)(=O)N3CCCC3)c(Cl)c2F)CC4)CCN1C` [Example 178, (R)-2-chloro-3-fluoro-4-(8-(3-(methoxymethyl)-4-methylpiperazin-1-yl)-7,10-dimethyl-5-oxo-1,3,4,5-tetrahydro-2H-chromeno[3,4-c]pyridine-3-carbonyl)-N-(pyrrolidin-1-ylsulfonyl)benzamide], the IC50 in experiment [1] lay in the range of 100 to 1000 nM; in experiment [2], 10 to 100 nM; in the experiment with human CD4+ T cells, 100 to 1000 nM. Also, the “MTHFD1/MTHFD2 IC50 ratio” value in experiment [2] is recorded as “J (>30)”.

In the case of `COC[C@H]1CN(c2ccc3c4c(c(=O)oc3c2C)CN(C(=O)c2ccc(C(=O)NS(=O)(=O)N3CCCC3)c(O[C@@H]3C[C@@H]5C[C@@H]5C3)c2F)CC4)CCN1C` [Example 63, 2-(((1R,3r,5S)-bicyclo[3.1.0]hexan-3-yl)oxy)-3-fluoro-4-(8-((R)-3-(methoxymethyl)-4-methylpiperazin-1-yl)-7-methyl-5-oxo-1,3,4,5-tetrahydro-2H-chromeno[3,4-c]pyridine-3-carbonyl)-N-(pyrrolidin-1-ylsulfonyl)benzamide], the IC50 in experiment [1] was in the range of 1 to 10 nM. In experiment [2], the IC50 fell in the range of 1 to 10 nM and the “MTHFD1/MTHFD2 IC50 ratio” value is “F (<3)”.

Regarding `COC[C@H]1CN(c2cc(C)c3c4c(c(=O)oc3c2C)CN(C(=O)c2cc(N(C)C)c(C(=O)NS(=O)(=O)C3(C)CC3)cc2C(F)(F)F)CC4)CCN1C` [Example 159, (R)-2-(dimethylamino)-4-(8-(3-(methoxymethyl)-4-methylpiperazin-1-yl)-7,10-dimethyl-5-oxo-1,3,4,5-tetrahydro-2H-chromeno[3,4-c]pyridine-3-carbonyl)-N-((1-methylcyclopropyl)sulfonyl)-5-(trifluoromethyl)benzamide], the IC50 in experiment [1] is above 5000 nM. Moreover, in experiment [2], the IC50 was in the range of 100 to 1000 nM and the “MTHFD1/MTHFD2 IC50 ratio” value is given as “H (>9.0 to 30)”.

Regarding `COC[C@H]1CN(c2cc(C)c3c4c(c(=O)oc3c2C)CN(C(=O)c2ccc(C(=O)NS(=O)(=O)N(C)C)c(N3CCCC(F)(F)C3)c2)CC4)CCN1C` [Example 77, (R)-2-(3,3-difluoropiperidin-1-yl)-N-(N,N-dimethylsulfamoyl)-4-(8-(3-(methoxymethyl)-4-methylpiperazin-1-yl)-7,10-dimethyl-5-oxo-1,3,4,5-tetrahydro-2H-chromeno[3,4-c]pyridine-3-carbonyl)benzamide], the IC50 in experiment [1] and in experiment [2] was 1 to 10 nM each time. Further, in experiment [2], the “MTHFD1/MTHFD2 IC50 ratio” value is given as “F (<3)”.
